Data set [1] concerns MCF-7 mammary cancer cell. Description: MCF-7 mammary cancer cell proliferation ([3H]thymidine incorporation), stimulated by 3% serum. The class given is cell-based. The method, then:
FIG. 1. […] MCF-7 mammary cancer cell were preincubated for 24 hours in 0.5% serum and then growth ([^3H]thymidine incorporation) was stimulated by 3% serum. Stimulated cells were treated for 3 days with the indicated concentrations of the astaxanthin alone or in combination with 0.3 μM lycopene (FIG. 1A). The high concentrations of lycopene and astaxanthin (FIG. 1B) are indicated. Data presented are the mean±SE of 2-3 independent experiments performed in quadruplicates.
FIG. 4. […] MCF-7 mammary cancer cell were preincubated for 24 hours in 0.5% serum and then growth ([^3H]thymidine incorporation) was stimulated by 3% serum. Stimulated cells were treated for 3 days with the indicated concentrations of the phytoene and phytofluene (phytoene) mixture alone or in combination with 0.3 μM lycopene (FIG. 4A). The high concentrations of lycopene and phytoene plus phytofluene (FIG. 4B) are indicated. Data presented are the mean±SE of 2-3 independent experiments performed in quadruplicates.
FIG. 5. […] MCF-7 mammary cancer cell were preincubated for 24 hours in 0.5% serum and then growth ([^3H]thymidine incorporation) was stimulated by 3% serum. Stimulated cells were treated for 3 days with the indicated concentrations Of the beta-carotene alone or in combination with 0.3 μM lycopene (FIG. 5A). The high concentrations of lycopene and beta-carotene (FIG. 5B) are indicated. Data presented are the mean±SE of 2-3 independent experiments performed in quadruplicates.

For data set [2], the system named is LNCaP prostate cancer cell. In words: DHT induced LNCaP prostate cancer cell proliferation ([3H]thymidine incorporation). The class given is cell-based. The conditions noted are these: 3 days. The method, then: FIG. 2. […] LNCaP prostate cancer cell were preincubated for 24 hours in 1.5% serum and then growth ([^3]thymidine incorporation) was stimulated by addition of […] (DHT). Stimulated cells were treated for 3 days with the indicated concentrations of the phytoene and phytofluene (phytoene) mixture alone or in combination with 0.3 μM Lycopene (plus lycopene) (FIG. 2A). The high concentrations of lycopene and phytoene plus phytofluene (FIG. 2B) are indicated. Data presented are the mean±SE of 2-3 independent experiments performed in quadruplicates.
FIG. 3. […] LNCaP prostate cancer cell were preincubated for 24 hours in 1.5% serum and then growth ([^3]thynidine incorporation) was stimulated by addition of 10^−9 M dihydrotestosterone DHT). Stimulated cells were treated for 3 days with the indicated concentrations of the beta-carotene alone or in combination with 0.3 μM lycopene (FIG. 3A). The high concentrations of lycopene and beta-carotene (FIG. 3B) are indicated. Data presented are the mean±SE of 2-3 independent experiments performed in quadruplicates.

For data set [3] the following is noted: subjects receiving high supplementation of lycopene; cited from earlier work.
The conditions of data set [4]: up to levels of 4 μM; cited from earlier work.
Data set [5] deals with dimethylbenz(a)anthracene(DMBA)/UV-B induced tumors. The conditions noted are these: mice; cited from earlier work.
Data set [6] relates to UV-B induced tumors. The conditions noted are these: mice treated with phytoene; cited from earlier work.
Data set [7] concerns H-ras-induced cell transformation. To be noted: mammalian cells producing phytoene; cited from earlier work.

Consider `CC(C)=CCC/C(C)=C/C=C/C(C)=C/C=C/C(C)=C/C=C/C=C(C)/C=C/C=C(C)/C=C/C=C(\C)CCC=C(C)C` [lycopene], for which the “effect of lycopene on the inhibitory effects of astaxanthin on mammary cancer cell proliferation” value in data set [1] (MCF-7, 0.3 μM lycopene combined with astaxanthin, 3 days, FIG. 1) is “enhances the inhibitory effects”. For the same compound, the “effect of lycopene on the inhibitory effects of beta-carotene on mammary cancer cell proliferation” value in data set [1] (MCF-7, 0.3 μM lycopene combined with beta-carotene, 3 days, FIG. 5) is listed as “enhances the inhibitory effects”. For the same compound, the “effect of lycopene on the inhibitory effects of phytoene and phytofluene on mammary cancer cell proliferation” value in data set [1] (MCF-7, 0.3 μM lycopene combined with phytoene and phytofluene mixture, 3 days, FIG. 4) is on record as “enhances the inhibitory effects”. Moreover, the decrease in proliferation entry in data set [1] (breast cancer cells, lycopene alone at low concentration (0.3 μM)) is reported as “no decrease in proliferation”. The “concentration of lycopene alone giving the same dramatic inhibition of cancer cells as the combination” value in data set [1] (lycopene alone) is 2 to 3 µM. Further, the “effect of lycopene on the inhibitory effects of beta-carotene on DHT induced prostate cancer cell proliferation” value in data set [2] (0.3 μM lycopene combined with beta-carotene, FIG. 3) is “enhances the inhibitory effects”. The “effect of lycopene on the inhibitory effects of phytoene and phytofluene on DHT induced prostate cancer cell proliferation” value in data set [2] (0.3 μM lycopene combined with phytoene and phytofluene mixture, FIG. 2) is on record as “enhances the inhibitory effects”. For the same compound, the serum concentration plateau in data set [3] was 1000 to 1200 nM. In data set [4], the “in-vitro activity with increasing concentration” value is “improved activity with the increase of concentration”.
In the case of `CC(C)=CCC/C(C)=C/CC/C(C)=C/CC/C(C)=C/C=C/C=C(\C)CC/C=C(\C)CC/C=C(\C)CCC=C(C)C` [phytoene], the “treating DMBA/UV-B induced tumors” value in data set [5] is given as “ineffective”. Besides, the “UV-B induced tumors developed versus control mice” value in data set [6] is on record as “fewer UV-B induced tumors than the control mice”. The “resistance to H-ras-induced cell transformation” value in data set [7] is recorded as “displayed resistance”.

Source of the values: patent publication US20040259959A1, “Method and pharmaceutical preparation for reducing the activity of cells” (priority 2001, published 2004).
